Data taken from patent US11970489B1, “4-[(substituted 1H-benzimidazol-2-ylsulfanyl)methyl]-6-substituted-2H-chromen-2-ones as larvicidal agents” (KING FAISAL UNIVERSITY, priority 2023, dated 2024).

Tested on: Anopheles arabiensis
Assay: Larvicidal screening (WHO protocol), 3rd instar larvae
Format: in vivo
Conditions: 24 h, read-out: Mortality 24 h
Experimental: Anopheles arabiensis was used in the study according to the protocol described by WHO (1975) guidelines in an insectary simulating the temperature (27.5° C.), humidity (70%), and lighting (12/12) of a malaria-endemic environment. One mL of test compound (1 mg/mL) was added to 1 mL of acetone and followed by […] of distilled water to obtain a final concentration of 4 μg/mL. Thirty individuals of 3rd instar larvae were introduced into a container. Negative control was set up using the solvent (acetone) and distilled water, and a positive control included Temephos, which is an active emulsified organophosphate larvicidal used by malaria control programs. Larval mortality was examined for each container separately for 24 h and fed specially made cat food that contained less oil/fat content. The percentage of mortality was determined relative to the initial number of larvae exposed.
Differences in larval mortality between treatments were assessed with generalized linear models using a quasi-Poisson link function. Anopheles arabiensis mortality was the dependent variable, while fixed effects were test compounds and observation period (24 and 48 h). A p-value <0.05 was considered statistically significant. Throughout the text, the results are presented as the adjusted mean the standard error.
`Cc1ccc2oc(=O)cc(CSc3nc4ccccc4o3)c2c1` [Compound 3c, 4-[(1,3-Benzoxazol-2-ylsulfanyl)methyl]-6-methyl-2H-chromen-2-one] showed a mortality at 4 µg/mL of 70.1 ± 2.29%.
For `Cc1ccc2oc(=O)cc(CSc3nnc(C)s3)c2c1` [Compound 3e, 6-Methyl-4-{[(5-methyl-1,3,4-thiadiazol-2-yl)sulfanyl]methyl}-2H-chromen-2-one], the mortality at 4 µg/mL was 77.2 ± 2.02%.
Compound `CC(C)(C)c1ccc2oc(=O)cc(CSc3nc4ccccc4s3)c2c1` [Compound 3i, 4-[(1,3-Benzothiazol-2-ylsulfanyl)methyl]-6 tert-butyl-2H-chromen-2-one] has a mortality at 4 µg/mL of 89.9 ± 2.44%.
For `Cc1nnc(SCc2cc(=O)oc3ccc(C(C)(C)C)cc23)s1` [Compound 3j, 4-{[(5-Methyl-1,3,4-thiadiazol-2-yl)sulfanyl]methyl}-6 tert-butyl-2H-chromen-2-one], the mortality at 4 µg/mL was 94.7 ± 2.61%.
`COP(=S)(OC)Oc1ccc(Sc2ccc(OP(=S)(OC)OC)cc2)cc1` [Temephos, reference compound] gave a mortality at 4 µg/mL of 98.9 ± 2.7%.

Same assay, conditions: 48 h, read-out: Mortality 48 h
Work on `Cc1ccc2oc(=O)cc(CSc3nc4ccccc4o3)c2c1` [Compound 3c, 4-[(1,3-Benzoxazol-2-ylsulfanyl)methyl]-6-methyl-2H-chromen-2-one] yielded a mortality at 4 µg/mL of 75.8 ± 2.21%.
With `Cc1ccc2oc(=O)cc(CSc3nnc(C)s3)c2c1` [Compound 3e, 6-Methyl-4-{[(5-methyl-1,3,4-thiadiazol-2-yl)sulfanyl]methyl}-2H-chromen-2-one] the mortality at 4 µg/mL was 82.2 ± 1.93%.
In the case of `CC(C)(C)c1ccc2oc(=O)cc(CSc3nc4ccccc4s3)c2c1` [Compound 3i, 4-[(1,3-Benzothiazol-2-ylsulfanyl)methyl]-6 tert-butyl-2H-chromen-2-one], the mortality at 4 µg/mL is reported as 94.7 ± 2.11%.
`Cc1nnc(SCc2cc(=O)oc3ccc(C(C)(C)C)cc23)s1` [Compound 3j, 4-{[(5-Methyl-1,3,4-thiadiazol-2-yl)sulfanyl]methyl}-6 tert-butyl-2H-chromen-2-one] gave a mortality at 4 µg/mL of 95.1 ± 2.09%.
In the case of `COP(=S)(OC)Oc1ccc(Sc2ccc(OP(=S)(OC)OC)cc2)cc1` [Temephos, reference compound], the mortality at 4 µg/mL is reported as 100 ± 2.71%.

Tested on: not given
Assay: not given
Conditions: not given
For `Cc1ccc2oc(=O)cc(CSc3nc4ccccc4[nH]3)c2c1`, the melting point was 190 to 192 °C.
For `COc1ccc2nc(SCc3cc(=O)oc4ccc(C)cc34)[nH]c2c1`, the melting point was 176 to 178 °C.
In the case of `Cc1ccc2oc(=O)cc(CSc3nc4ccccc4s3)c2c1`, the melting point is reported as 192 to 194 °C.
In the case of `CC(C)(C)c1ccc2oc(=O)cc(CSc3nc4ccccc4[nH]3)c2c1`, the melting point is reported as 189 to 190 °C.
Work on `CC(C)(C)c1ccc2oc(=O)cc(CSc3nc4ccccc4o3)c2c1` yielded a melting point of 212 to 214 °C.
